Data from PubChem BioAssay AID1963866 (Molecular Pharmacology Branch, DTP, NCI, 2024).
“And” between values parts separate entries of the source, which are not always exact repeats. Equal entries are not always repeated.

Test system: PDC KRAS tumor spheroids with HUVEC/MSC, viability
Assay: Anticancer human tumor 349418-098-R-PDC patient-derived lung adenocarcinoma cell line growth inhibition [KRAS2]
Details: for viability, T/C: stronger effect = lower value
How it was run: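 Combination screen of spheroid viability in tumor-cell co-cultures with endothelial (HUVEC) and mesenchymal stem cell stroma. Each agent was tested in half-log dilutions, topping at clinical Cmax or at 10 microM without a known Cmax.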

[1] = curve of first compound, second compound 0.1 µM
[2] = curve of first compound, second compound 0.316 µM
[3] = curve of first compound, second compound 1 µM
[4] = curve of first compound, second compound 3.16 µM
[5] = curve of first compound, second compound 10 µM
[6] = second compound 0.1 µM, first compound 0.000316 µM
[7] = second compound 0.1 µM, first compound 0.001 µM
[8] = second compound 0.1 µM, first compound 0.00316 µM
[9] = second compound 0.1 µM, first compound 0.01 µM
[10] = second compound 0.1 µM, first compound 0.0316 µM
[11] = second compound 0.1 µM, first compound 0.1 µM
[12] = second compound 0.316 µM, first compound 0.000316 µM
[13] = second compound 0.316 µM, first compound 0.001 µM
[14] = second compound 0.316 µM, first compound 0.00316 µM
[15] = second compound 0.316 µM, first compound 0.01 µM
[16] = second compound 0.316 µM, first compound 0.0316 µM
[17] = second compound 0.316 µM, first compound 0.1 µM
[18] = second compound 1 µM, first compound 0.000316 µM
[19] = second compound 1 µM, first compound 0.001 µM
[20] = second compound 1 µM, first compound 0.00316 µM
[21] = second compound 1 µM, first compound 0.01 µM
[22] = second compound 1 µM, first compound 0.0316 µM
[23] = second compound 1 µM, first compound 0.1 µM
[24] = second compound 3.16 µM, first compound 0.000316 µM
[25] = second compound 3.16 µM, first compound 0.001 µM
[26] = second compound 3.16 µM, first compound 0.00316 µM
[27] = second compound 3.16 µM, first compound 0.01 µM
[28] = second compound 3.16 µM, first compound 0.0316 µM
[29] = second compound 3.16 µM, first compound 0.1 µM
[30] = second compound 10 µM, first compound 0.000316 µM
[31] = second compound 10 µM, first compound 0.001 µM
[32] = second compound 10 µM, first compound 0.00316 µM
[33] = second compound 10 µM, first compound 0.01 µM
[34] = second compound 10 µM, first compound 0.0316 µM
[35] = second compound 10 µM, first compound 0.1 µM
[36] = second compound 0.1 µM, first compound 0.316 µM
[37] = second compound 0.1 µM, first compound 1 µM
[38] = second compound 0.1 µM, first compound 3.16 µM
[39] = second compound 0.1 µM, first compound 10 µM
[40] = second compound 0.316 µM, first compound 0.316 µM
[41] = second compound 0.316 µM, first compound 1 µM
[42] = second compound 0.316 µM, first compound 3.16 µM
[43] = second compound 0.316 µM, first compound 10 µM
[44] = second compound 1 µM, first compound 0.316 µM
[45] = second compound 1 µM, first compound 1 µM
[46] = second compound 1 µM, first compound 3.16 µM
[47] = second compound 1 µM, first compound 10 µM
[48] = second compound 3.16 µM, first compound 0.316 µM
[49] = second compound 3.16 µM, first compound 1 µM
[50] = second compound 3.16 µM, first compound 3.16 µM
[51] = second compound 3.16 µM, first compound 10 µM
[52] = second compound 10 µM, first compound 0.316 µM
[53] = second compound 10 µM, first compound 1 µM
[54] = second compound 10 µM, first compound 3.16 µM
[55] = second compound 10 µM, first compound 10 µM
[56] = compound alone, run of 07/19/2021
[57] = compound alone, run of 07/26/2021
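Note: spheroids exposed to compounds for seven days before readout.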

## CN(C)C/C=C/C(=O)Nc1cc2c(Nc3ccc(F)c(Cl)c3)ncnc2cc1O[C@H]1CCOC1 + CNCc1ccccc1-c1csc(C(C)Nc2nc(C)nc3cc(OC)c(OC)cc23)c1
[1]
  IC50: > 0.1 µM
[2]
  IC50: > 0.1 µM
[3]
  IC50: > 0.1 µM
[4]
  IC50: < 0.000316 µM
[5]
  IC50: < 0.000316 µM
[6]
  viability, T/C: 105%
[7]
  viability, T/C: 108%
[8]
  viability, T/C: 102%
[9]
  viability, T/C: 97%
[10]
  viability, T/C: 108%
[11]
  viability, T/C: 91.5%
[12]
  viability, T/C: 98.2%
[13]
  viability, T/C: 103%
[14]
  viability, T/C: 103%
[15]
  viability, T/C: 99.9%
[16]
  viability, T/C: 97.8%
[17]
  viability, T/C: 91.2%
[18]
  viability, T/C: 107%
[19]
  viability, T/C: 104%
[20]
  viability, T/C: 87.7%
[21]
  viability, T/C: 94.2%
[22]
  viability, T/C: 84.9%
[23]
  viability, T/C: 95.4%
[24]
  viability, T/C: 0.27%
[25]
  viability, T/C: 0.17%
[26]
  viability, T/C: 0.19%
[27]
  viability, T/C: 0.41%
[28]
  viability, T/C: 0.63%
[29]
  viability, T/C: 0.26%
[30]
  viability, T/C: 0.08%
[31]
  viability, T/C: 0.07%
[32]
  viability, T/C: 0.07%
[33]
  viability, T/C: 0.08%
[34]
  viability, T/C: 0.08%
[35]
  viability, T/C: 0.13%

## COc1cc2nccc(Oc3ccc(NC(=O)C4(C(=O)Nc5ccc(F)cc5)CC4)cc3)c2cc1OC + C=CC(=O)N1CCN(c2nc(=O)n(-c3c(C)ccnc3C(C)C)c3nc(-c4c(O)cccc4F)c(F)cc23)C(C)C1
[1]
  IC50: 1.69 µM
[2]
  IC50: 1.65 µM
[3]
  IC50: 1.61 µM
[4]
  IC50: 1.19 µM
[5]
  IC50: < 0.0316 µM
[10]
  viability, T/C: 99.4%
[11]
  viability, T/C: 98.3%
[36]
  viability, T/C: 90.7%
[37]
  viability, T/C: 78.6%
[38]
  viability, T/C: 13.2%
[39]
  viability, T/C: 18.1%
[16]
  viability, T/C: 93.2%
[17]
  viability, T/C: 92.2%
[40]
  viability, T/C: 86.4%
[41]
  viability, T/C: 75.9%
[42]
  viability, T/C: 9.48%
[43]
  viability, T/C: 22.8%
[22]
  viability, T/C: 83.2%
[23]
  viability, T/C: 80.7%
[44]
  viability, T/C: 73.2%
[45]
  viability, T/C: 76.7%
[46]
  viability, T/C: 10.7%
[47]
  viability, T/C: 14.3%
[28]
  viability, T/C: 62.1%
[29]
  viability, T/C: 64.5%
[48]
  viability, T/C: 58.6%
[49]
  viability, T/C: 56.4%
[50]
  viability, T/C: 10.2%
[51]
  viability, T/C: 16.6%
[34]
  viability, T/C: 30.1%
[35]
  viability, T/C: 38.1%
[52]
  viability, T/C: 36%
[53]
  viability, T/C: 30.1%
[54]
  viability, T/C: 7.88%
[55]
  viability, T/C: 9.17%

## CC1OCC2(CCN(c3cnc(Sc4ccnc(N)c4Cl)c(N)n3)CC2)C1N (configuration not stated) + C=CC(=O)N1CCN(c2nc(=O)n(-c3c(C)ccnc3C(C)C)c3nc(-c4c(O)cccc4F)c(F)cc23)C(C)C1
[1]
  IC50: > 10 µM
[2]
  IC50: > 10 µM
[3]
  IC50: > 10 µM
[4]
  IC50: > 10 µM
[5]
  IC50: < 0.0316 µM
[10]
  viability, T/C: 109%
[11]
  viability, T/C: 79.5%
[36]
  viability, T/C: 110%
[37]
  viability, T/C: 90%
[38]
  viability, T/C: 76%
[39]
  viability, T/C: 74.5%
[16]
  viability, T/C: 87.3%
[17]
  viability, T/C: 94.9%
[40]
  viability, T/C: 90.2%
[41]
  viability, T/C: 100%
[42]
  viability, T/C: 96.4%
[43]
  viability, T/C: 78.5%
[22]
  viability, T/C: 82%
[23]
  viability, T/C: 106%
[44]
  viability, T/C: 96.3%
[45]
  viability, T/C: 78.6%
[46]
  viability, T/C: 95.5%
[47]
  viability, T/C: 73.8%
[28]
  viability, T/C: 70.2%
[29]
  viability, T/C: 71.1%
[48]
  viability, T/C: 72.6%
[49]
  viability, T/C: 63.2%
[50]
  viability, T/C: 68%
[51]
  viability, T/C: 60.2%
[34]
  viability, T/C: 30.3%
[35]
  viability, T/C: 33.1%
[52]
  viability, T/C: 23.9%
[53]
  viability, T/C: 25%
[54]
  viability, T/C: 28%
[55]
  viability, T/C: 21.9%

## CC1OCC2(CCN(c3cnc(Sc4ccnc(N)c4Cl)c(N)n3)CC2)C1N (configuration not stated)
Compound 0.0316 µM
  viability, T/C: 102% (2×) and 80.3%
Compound alone, run of 07/12/2021
  IC50: 10 µM and > 10 µM
[56]
  IC50: > 10 µM
[57]
  IC50: > 10 µM
Curve of compound
  IC50: > 10 µM

## COc1cc2nccc(Oc3ccc(NC(=O)C4(C(=O)Nc5ccc(F)cc5)CC4)cc3)c2cc1OC
Compound 0.0316 µM
  viability, T/C: 102% [middle of 5 runs]
Compound 0.1 µM
  viability, T/C: 98.8% [middle of 5 runs]
Compound 0.316 µM
  viability, T/C: 94.4% [middle of 5 runs]
Compound 3.16 µM
  viability, T/C: 14.4% [middle of 5 runs]
Curve of compound
  IC50: 1.76 µM [middle of 5 runs]

## Cn1ncnc1[C@H]1c2n[nH]c(=O)c3cc(F)cc(c23)N[C@@H]1c1ccc(F)cc1 + CC1OCC2(CCN(c3cnc(Sc4ccnc(N)c4Cl)c(N)n3)CC2)C1N
[1]
  IC50: > 0.1 µM
[2]
  IC50: > 0.1 µM
[3]
  IC50: > 0.1 µM
[4]
  IC50: > 0.1 µM
[5]
  IC50: > 0.1 µM
[6]
  viability, T/C: 105%
[7]
  viability, T/C: 102%
[8]
  viability, T/C: 95.9%
[9]
  viability, T/C: 95.7%
[10]
  viability, T/C: 88.6%
[11]
  viability, T/C: 85.8%
[12]
  viability, T/C: 93.5%
[13]
  viability, T/C: 97.2%
[14]
  viability, T/C: 95.6%
[15]
  viability, T/C: 87.5%
[16]
  viability, T/C: 83.3%
[17]
  viability, T/C: 73.9%
[18]
  viability, T/C: 95.8%
[19]
  viability, T/C: 93%
[20]
  viability, T/C: 92.2%
[21]
  viability, T/C: 83.8%
[22]
  viability, T/C: 82.6%
[23]
  viability, T/C: 76%
[24]
  viability, T/C: 90.3%
[25]
  viability, T/C: 83.1%
[26]
  viability, T/C: 83.3%
[27]
  viability, T/C: 79.8%
[28]
  viability, T/C: 73.7%
[29]
  viability, T/C: 74.2%
[30]
  viability, T/C: 78.9%
[31]
  viability, T/C: 74.4%
[32]
  viability, T/C: 76.7%
[33]
  viability, T/C: 66.7%
[34]
  viability, T/C: 62.8%
[35]
  viability, T/C: 61.9%

## C=CC(=O)N1CCN(c2nc(OCC3CCCN3C)nc3c2CCN(c2cccc4cccc(C)c24)C3)CC1CC#N (configuration not stated)
[56]
  IC50: 1.47 µM [middle of 5 runs]
[57]
  IC50: 1.33 µM [middle of 5 runs]

## CC(=O)OC12COC1CC(O)C1(C)C(=O)C(O)C3=C(C)C(OC(=O)C(O)C(NC(=O)OC(C)(C)C)c4ccccc4)CC(O)(C(OC(=O)c4ccccc4)C21)C3(C)C (configuration not stated) + COc1cc2nc(C)nc(NC(C)c3cc(N)cc(C(F)(F)F)c3)c2cc1OC1CCOC1
[1]
  IC50: < 0.01 µM
[2]
  IC50: < 0.01 µM
[3]
  IC50: < 0.01 µM
[4]
  IC50: < 0.01 µM
[5]
  IC50: < 0.01 µM
[9]
  viability, T/C: 22%
[10]
  viability, T/C: 25.7%
[11]
  viability, T/C: 24%
[36]
  viability, T/C: 33.4%
[37]
  viability, T/C: 27.4%
[38]
  viability, T/C: 38.3%
[15]
  viability, T/C: 20.7%
[16]
  viability, T/C: 27.1%
[17]
  viability, T/C: 25.8%
[40]
  viability, T/C: 23.7%
[41]
  viability, T/C: 28.6%
[42]
  viability, T/C: 34.5%
[21]
  viability, T/C: 22.8%
[22]
  viability, T/C: 31.1%
[23]
  viability, T/C: 27.4%
[44]
  viability, T/C: 33.7%
[45]
  viability, T/C: 27.8%
[46]
  viability, T/C: 29.6%
[27]
  viability, T/C: 18.3%
[28]
  viability, T/C: 21.3%
[29]
  viability, T/C: 21.7%
[48]
  viability, T/C: 26.3%
[49]
  viability, T/C: 28.3%
[50]
  viability, T/C: 22.1%
[33]
  viability, T/C: 20.1%
[34]
  viability, T/C: 23.3%
[35]
  viability, T/C: 25.4%
[52]
  viability, T/C: 20.4%
[53]
  viability, T/C: 23.2%
[54]
  viability, T/C: 26.2%
